According to ChEMBL document CHEMBL2010689 (J Med Chem, 2012):
Activity calls are given as the source filed them. The calls are words filed in the database; no cut-off is given here.

Tests used:
A-375 [1] = assay: Antitumor activity against human A375 cells xenografted in athymic nude mouse assessed as complete tumor regression at 10 mg/kg, po bid; type: functional
[2] = Cmax in athymic nude mouse plasma xenografted with human A375 cells at 10 mg/kg, po
[3] = Inhibition of JNK at 1 uM
[4] = target: Casein kinase I isoform alpha (Homo sapiens, UniProt P48729); assay: Inhibition of CK1 using ATP as substrate
A-375 [5] = assay: Antitumor activity against human A375 cells xenografted in athymic nude mouse assessed as complete tumor regression at 1 mg/kg, po bid; type: functional
[6] = target: Substance-K receptor (Homo sapiens) (UniProt P21452); assay: Inhibition of neurokinin NK2 receptor at 10 uM
Sequence of Substance-K receptor (Homo sapiens) (P21452 whole entry): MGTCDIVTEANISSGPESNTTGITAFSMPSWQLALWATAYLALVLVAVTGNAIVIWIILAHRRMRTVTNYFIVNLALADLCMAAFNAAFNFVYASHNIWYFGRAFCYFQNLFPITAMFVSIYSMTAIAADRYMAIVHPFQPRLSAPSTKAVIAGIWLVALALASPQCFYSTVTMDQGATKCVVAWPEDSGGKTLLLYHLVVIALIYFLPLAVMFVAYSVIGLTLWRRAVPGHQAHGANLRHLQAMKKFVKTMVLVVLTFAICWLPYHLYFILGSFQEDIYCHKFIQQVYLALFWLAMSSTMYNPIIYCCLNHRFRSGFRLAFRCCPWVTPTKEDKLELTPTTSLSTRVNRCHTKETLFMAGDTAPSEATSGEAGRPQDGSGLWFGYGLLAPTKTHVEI

[7] = target: Vascular endothelial growth factor receptor 1 (Homo sapiens, UniProt P17948); assay: Inhibition of human VEGFR1 using ATP as substrate
Sequence of Vascular endothelial growth factor receptor 1 (P17948 whole entry): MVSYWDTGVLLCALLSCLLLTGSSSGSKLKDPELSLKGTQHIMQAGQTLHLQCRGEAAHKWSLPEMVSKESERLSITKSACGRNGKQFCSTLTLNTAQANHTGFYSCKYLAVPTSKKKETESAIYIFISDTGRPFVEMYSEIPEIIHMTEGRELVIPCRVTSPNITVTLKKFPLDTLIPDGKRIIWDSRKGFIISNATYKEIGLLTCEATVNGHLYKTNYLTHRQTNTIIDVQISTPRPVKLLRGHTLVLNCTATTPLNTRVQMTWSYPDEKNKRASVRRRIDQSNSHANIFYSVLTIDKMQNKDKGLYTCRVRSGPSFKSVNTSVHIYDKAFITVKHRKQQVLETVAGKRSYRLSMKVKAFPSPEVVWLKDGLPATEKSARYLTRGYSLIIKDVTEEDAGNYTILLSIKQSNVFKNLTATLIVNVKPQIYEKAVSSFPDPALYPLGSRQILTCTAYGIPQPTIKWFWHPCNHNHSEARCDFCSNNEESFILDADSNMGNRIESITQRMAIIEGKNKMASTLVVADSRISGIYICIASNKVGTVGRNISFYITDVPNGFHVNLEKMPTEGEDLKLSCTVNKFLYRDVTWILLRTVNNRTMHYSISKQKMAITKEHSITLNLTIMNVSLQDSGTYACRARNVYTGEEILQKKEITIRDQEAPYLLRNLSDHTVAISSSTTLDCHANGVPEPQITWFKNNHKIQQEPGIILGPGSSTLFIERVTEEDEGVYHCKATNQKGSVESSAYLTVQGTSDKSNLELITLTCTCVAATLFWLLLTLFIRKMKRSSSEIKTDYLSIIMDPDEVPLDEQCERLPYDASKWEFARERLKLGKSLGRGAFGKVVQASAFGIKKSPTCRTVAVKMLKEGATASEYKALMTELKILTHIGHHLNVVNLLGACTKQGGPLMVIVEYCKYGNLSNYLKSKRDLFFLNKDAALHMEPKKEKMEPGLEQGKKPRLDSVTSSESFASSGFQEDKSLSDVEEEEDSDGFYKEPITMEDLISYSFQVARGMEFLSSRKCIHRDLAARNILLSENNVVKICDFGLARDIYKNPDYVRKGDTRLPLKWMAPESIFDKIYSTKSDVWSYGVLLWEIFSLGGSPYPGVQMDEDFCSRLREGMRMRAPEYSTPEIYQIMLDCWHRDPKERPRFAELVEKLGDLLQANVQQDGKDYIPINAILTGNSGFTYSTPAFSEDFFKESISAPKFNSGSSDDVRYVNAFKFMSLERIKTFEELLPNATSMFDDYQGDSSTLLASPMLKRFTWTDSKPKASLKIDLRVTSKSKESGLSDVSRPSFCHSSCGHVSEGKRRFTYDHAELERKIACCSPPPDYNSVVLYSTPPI

HUVEC [8] = assay: Cytotoxicity against HUVEC; type: cell-based; conditions: human
[9] = target: High affinity nerve growth factor receptor (Homo sapiens, UniProt P04629); assay: Inhibition of human TRK-A using ATP as substrate
Sequence of High affinity nerve growth factor receptor (P04629 whole entry): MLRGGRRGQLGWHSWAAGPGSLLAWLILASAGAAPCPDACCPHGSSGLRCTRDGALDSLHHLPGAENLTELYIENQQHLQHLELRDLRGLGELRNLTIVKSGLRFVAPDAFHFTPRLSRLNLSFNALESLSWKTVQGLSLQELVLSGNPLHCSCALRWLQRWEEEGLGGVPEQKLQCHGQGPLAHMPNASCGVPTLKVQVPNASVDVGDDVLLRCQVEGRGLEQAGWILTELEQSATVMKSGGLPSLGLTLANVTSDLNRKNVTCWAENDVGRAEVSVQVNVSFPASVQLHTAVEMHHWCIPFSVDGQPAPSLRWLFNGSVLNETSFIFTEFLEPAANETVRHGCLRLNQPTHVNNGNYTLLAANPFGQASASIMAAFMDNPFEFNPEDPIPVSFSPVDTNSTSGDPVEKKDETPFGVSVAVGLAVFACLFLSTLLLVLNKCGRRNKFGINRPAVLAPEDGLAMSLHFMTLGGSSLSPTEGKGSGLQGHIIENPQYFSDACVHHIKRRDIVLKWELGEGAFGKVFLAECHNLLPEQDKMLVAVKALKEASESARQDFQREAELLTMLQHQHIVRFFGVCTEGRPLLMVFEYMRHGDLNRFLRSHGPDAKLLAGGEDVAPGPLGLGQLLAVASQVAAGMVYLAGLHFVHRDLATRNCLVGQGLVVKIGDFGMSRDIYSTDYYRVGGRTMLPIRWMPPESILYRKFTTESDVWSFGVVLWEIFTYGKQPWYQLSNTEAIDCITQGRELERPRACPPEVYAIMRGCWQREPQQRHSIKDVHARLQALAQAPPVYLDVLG

HUVEC [10] = assay: Antiangiogenic activity in HUVEC assessed as inhibition of FGF-induced proliferation; type: functional, cell-based; conditions: Homo sapiens
Aorta = assay: Antiangiogenic activity in rat aortic rings assessed as inhibition of peak phase microvessel growth; type: functional, tissue-based
[11] = Antiangiogenic activity in BAEC assessed as inhibition of FGF-induced migration; type: functional; conditions: Bos taurus
[12] = Inhibition of PDGFR at 1 uM
[13] = target: Muscarinic acetylcholine receptor M4 (Homo sapiens, UniProt P08173); assay: Inhibition of muscarinic M4 receptor
Sequence of Muscarinic acetylcholine receptor M4 (P08173 whole entry): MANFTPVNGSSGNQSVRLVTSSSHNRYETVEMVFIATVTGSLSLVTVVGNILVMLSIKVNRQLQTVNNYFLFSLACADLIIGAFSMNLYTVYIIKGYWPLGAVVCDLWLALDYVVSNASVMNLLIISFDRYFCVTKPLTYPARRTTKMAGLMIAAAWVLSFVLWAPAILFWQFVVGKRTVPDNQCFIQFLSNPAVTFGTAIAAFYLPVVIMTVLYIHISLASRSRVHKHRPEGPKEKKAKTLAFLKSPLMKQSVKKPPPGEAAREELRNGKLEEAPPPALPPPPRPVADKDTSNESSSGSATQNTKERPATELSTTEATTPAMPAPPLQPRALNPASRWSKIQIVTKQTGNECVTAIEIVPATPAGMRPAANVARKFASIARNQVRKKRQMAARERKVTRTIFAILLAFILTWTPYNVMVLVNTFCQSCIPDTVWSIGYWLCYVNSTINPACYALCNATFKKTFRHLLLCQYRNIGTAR

[14] = Antiangiogenic activity in HMVEC assessed as inhibition of FGF-induced survival; type: functional, Homo sapiens
[15] = Cmax in athymic nude mouse plasma xenografted with human U251MG cells at 30 mg/kg, po; type: ADME, organism-based, U-251; parameters: dose 30 mg/kg, route oral
[16] = Cmax in athymic nude mouse tumor xenografted with human A375 cells at 10 mg/kg, po
[17] = Antiangiogenic activity in HMVEC assessed as inhibition of VEGF-induced proliferation; type: functional; conditions: Homo sapiens
[18] = Antitumor activity against human U251MG cells xenografted in athymic nude mouse assessed as complete tumor regression at 1 mg/kg, po bid; type: functional, U-251
Cytochrome P450 2C19 = Cytochrome P450 2C19 (Homo sapiens, UniProt P33261); assay: Inhibition of CYP2C19; type: ADME
Mus musculus = assay: Toxicity in athymic nude mouse bearing human A375 cells assessed as apparent toxicity at 0.1 to 10 mg/kg, po; type: organism-based, A-375; parameters: dose 0.1-10 mg/kg, route oral; conditions: in vivo
[19] = Antiangiogenic activity in BAEC assessed as inhibition of FGF-induced survival; type: functional, Bos taurus
A-375 [20] = assay: Antitumor activity against human A375 cells xenografted in athymic nude mouse assessed as complete tumor regression at 0.3 mg/kg, po bid
[21] = Tmax in cynomolgus monkey at 3 mg/kg, po; type: ADME, organism-based, Macaca fascicularis; parameters: dose 3 mg/kg, route oral; conditions: in vivo
[22] = target: Voltage-gated inwardly rectifying potassium channel KCNH2 (Homo sapiens, UniProt Q12809); assay: Inhibition of human Erg expressed CHO cells; type: cell-based
Sequence of Voltage-gated inwardly rectifying potassium channel KCNH2 (Q12809 whole entry): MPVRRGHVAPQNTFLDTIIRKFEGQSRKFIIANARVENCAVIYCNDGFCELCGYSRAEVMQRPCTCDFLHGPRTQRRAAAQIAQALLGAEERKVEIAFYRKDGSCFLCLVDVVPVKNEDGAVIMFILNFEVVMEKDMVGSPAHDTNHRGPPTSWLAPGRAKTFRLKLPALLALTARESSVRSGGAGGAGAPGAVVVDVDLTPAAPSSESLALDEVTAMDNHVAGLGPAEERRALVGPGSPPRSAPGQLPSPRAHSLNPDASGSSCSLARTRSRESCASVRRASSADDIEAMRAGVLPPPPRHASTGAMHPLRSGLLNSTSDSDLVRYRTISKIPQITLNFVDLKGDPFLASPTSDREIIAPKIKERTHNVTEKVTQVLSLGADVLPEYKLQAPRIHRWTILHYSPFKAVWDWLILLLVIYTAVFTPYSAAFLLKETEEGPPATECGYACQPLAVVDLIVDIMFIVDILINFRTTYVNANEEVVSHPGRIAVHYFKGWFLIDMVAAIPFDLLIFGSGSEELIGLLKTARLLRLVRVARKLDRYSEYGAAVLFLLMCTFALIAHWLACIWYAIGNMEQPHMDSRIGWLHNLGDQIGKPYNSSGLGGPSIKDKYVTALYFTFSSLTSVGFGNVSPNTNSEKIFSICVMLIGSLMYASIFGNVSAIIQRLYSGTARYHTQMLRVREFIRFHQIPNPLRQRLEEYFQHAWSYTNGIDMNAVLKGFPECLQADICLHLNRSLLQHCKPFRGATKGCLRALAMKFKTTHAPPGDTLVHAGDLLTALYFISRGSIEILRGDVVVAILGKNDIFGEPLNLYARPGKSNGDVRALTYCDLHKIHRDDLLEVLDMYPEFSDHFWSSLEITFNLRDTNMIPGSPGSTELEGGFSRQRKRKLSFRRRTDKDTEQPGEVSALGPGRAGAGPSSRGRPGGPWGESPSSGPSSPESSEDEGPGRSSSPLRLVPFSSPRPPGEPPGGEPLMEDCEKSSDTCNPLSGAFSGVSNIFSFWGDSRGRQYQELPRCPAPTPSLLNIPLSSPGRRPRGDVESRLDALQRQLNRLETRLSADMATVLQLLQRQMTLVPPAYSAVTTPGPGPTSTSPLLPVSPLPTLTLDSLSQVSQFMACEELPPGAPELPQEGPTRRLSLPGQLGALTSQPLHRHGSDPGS

[23] = Antiangiogenic activity in BAEC assessed as inhibition of FGF-induced proliferation; type: functional; conditions: Bos taurus
[24] = Terminal half life in cynomolgus monkey at 0.5 mg/kg, iv; type: ADME, organism-based, Macaca fascicularis; parameters: dose 0.5 mg/kg, route intravenous; conditions: in vivo, read-out: beta t1/2 (converted)
[25] = Half life in cynomolgus monkey at 3 mg/kg, po; type: ADME, organism-based, Macaca fascicularis; parameters: dose 3 mg/kg, route oral; conditions: in vivo
A-375 [26] = assay: Antitumor activity against human A375 cells xenografted in athymic nude mouse assessed as complete tumor regression at 3 mg/kg, po bid; type: functional
[27] = Toxicity in dog purkinje fibres assessed as drug-induced change in action potential; type: tissue-based, Canis lupus familiaris, Purkinje fiber
[28] = Antitumor activity against human U251MG cells xenografted in athymic nude mouse assessed as partial tumor regression at 1 mg/kg, po bid; type: functional, U-251
A-375 [29] = assay: Antitumor activity against human A375 cells xenografted in athymic nude mouse assessed as tumor growth inhibition at 0.3 mg/kg, po bid measured on day 29 relative to control; type: functional; conditions: A-375, 696 h, read-out: GI
HUVEC [30] = assay: Antiangiogenic activity in HUVEC assessed as inhibition of capillary-tube formation by matrigel assay; type: functional, cell-based; conditions: Homo sapiens
[31] = Half life in Sprague-Dawley rat at 5 mg/kg, po; type: ADME, organism-based; parameters: dose 5 mg/kg, route oral; conditions: in vivo
P388 [32] = assay: Antitumor activity against mouse P388 cells xenografted in DBA/2 mouse assessed as mean survival at 30 mg/kg, po qd for 14 days followed by readministeration after 7 days; type: functional
[33] = Oral bioavailability in Sprague-Dawley rat at 5 mg/kg; type: ADME, organism-based; conditions: in vivo
[34] = Antitumor activity against human U251MG cells xenografted in athymic nude mouse assessed as partial tumor regression at 3 mg/kg, po bid; type: functional, U-251
[35] = target: Fibroblast growth factor receptor 1 (Homo sapiens, UniProt P11362); assay: Inhibition of human FGFR1 using ATP as substrate
HUVEC [36] = assay: Antiangiogenic activity in HUVEC assessed as inhibition of FGF-induced survival; type: functional, cell-based; conditions: Homo sapiens
[37] = target: Type-1 angiotensin II receptor (Homo sapiens) (UniProt P30556); assay: Inhibition of angiotensin AT1 at 10 uM
Sequence of Type-1 angiotensin II receptor (Homo sapiens) (P30556 whole entry): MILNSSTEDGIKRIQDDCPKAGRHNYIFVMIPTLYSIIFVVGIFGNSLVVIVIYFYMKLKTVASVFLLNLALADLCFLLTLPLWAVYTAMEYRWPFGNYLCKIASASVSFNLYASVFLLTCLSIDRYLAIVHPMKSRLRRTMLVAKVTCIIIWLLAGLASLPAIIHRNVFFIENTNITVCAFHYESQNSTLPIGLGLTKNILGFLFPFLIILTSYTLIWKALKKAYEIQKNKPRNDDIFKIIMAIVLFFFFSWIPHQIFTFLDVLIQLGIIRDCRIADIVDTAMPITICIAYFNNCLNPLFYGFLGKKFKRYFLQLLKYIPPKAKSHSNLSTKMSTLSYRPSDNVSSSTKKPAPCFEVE

[38] = Oral bioavailability in cynomolgus monkey at 3 mg/kg; type: ADME, organism-based, Macaca fascicularis; conditions: in vivo
[39] = target: Muscarinic acetylcholine receptor M4 (Homo sapiens) (UniProt P08173); conditions: 10 uM
Sequence of Muscarinic acetylcholine receptor M4 (Homo sapiens) (P08173 whole entry): as the sequence (P08173 whole entry) above
Description: Inhibition of muscarinic M4 receptor at 10 uM

[40] = target: RAC-alpha serine/threonine-protein kinase (Homo sapiens) (UniProt P31749); assay: Inhibition of PKB at 1 uM
[41] = Inhibition of Mek at 1 uM
[42] = Volume of distribution in Sprague-Dawley rat at 0.8 mg/kg, iv; type: ADME, organism-based; parameters: dose 0.8 mg/kg, route intravenous; conditions: in vivo
P388 [43] = assay: Antitumor activity against mouse P388 cells xenografted in DBA/2 mouse assessed as mean survival at 30 mg/kg, po qd (reference value: 14 days); type: functional
[44] = AUC in Sprague-Dawley rat at 5 mg/kg, po; type: ADME, organism-based; parameters: dose 5 mg/kg, route oral; conditions: plasma
[45] = Cmax in Sprague-Dawley rat at 5 mg/kg, po; type: ADME, organism-based; parameters: dose 5 mg/kg, route oral; conditions: in vivo
A-375 [46] = assay: Antitumor activity against human A375 cells xenografted in athymic nude mouse assessed as partial tumor regression at 3 mg/kg, po bid; type: functional
[47] = Metabolic stability in rat liver S9 fraction assessed as compound remaining after 2 hrs; type: ADME, subcellular; conditions: read-out: Stability
P388 [48] = assay: Antitumor activity against mouse P388 cells xenografted in DBA/2 mouse assessed as mean survival at 30 mg/kg, po bid (reference value: 14 days); type: functional
[49] = target: ALK tyrosine kinase receptor (Homo sapiens, UniProt Q9UM73); assay: Inhibition of human ALK using ATP as substrate
[50] = target: Adenosine receptor A3 (Homo sapiens) (UniProt P0DMS8); assay: Inhibition of adenosine A3 receptor at 10 uM
Sequence of Adenosine receptor A3 (Homo sapiens) (P0DMS8 whole entry): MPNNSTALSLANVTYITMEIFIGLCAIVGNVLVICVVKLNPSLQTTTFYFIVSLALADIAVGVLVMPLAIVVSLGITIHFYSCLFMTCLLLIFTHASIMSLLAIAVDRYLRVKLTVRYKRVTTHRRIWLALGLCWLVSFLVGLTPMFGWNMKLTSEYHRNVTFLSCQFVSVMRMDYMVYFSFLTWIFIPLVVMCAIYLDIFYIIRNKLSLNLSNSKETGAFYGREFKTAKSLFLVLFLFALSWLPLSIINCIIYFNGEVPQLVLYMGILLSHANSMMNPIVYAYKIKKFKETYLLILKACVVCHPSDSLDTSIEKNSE

[51] = Inhibition of MKK at 1 uM

## CC(C)Cn1c2ccc(Nc3ncccn3)cc2c2c3c(c4c(c21)CCc1nn(C)cc1-4)C(=O)NC3 [CEP-11981]
A-375 [1]
  Activity: 40%
[2]
  Cmax: 456 ng/mL
[3]
  inhibition: Active
[4]
  IC50: 48 nM
A-375 [5]
  Activity: 20%
[6]
  inhibition: > 80%
[7]
  IC50: 3 nM
HUVEC [8]
  Activity: Non-toxic
[9]
  IC50: 3 nM
HUVEC [10]
  EC50: 8 nM
Aorta
  Activity: Dose-dependent effect
  EC50: 4 nM
[11]
  EC50: 8 nM
[12]
  inhibition: Active
[13]
  Ki: 2900 nM
[14]
  EC50: 8 nM
[15]
  Cmax: 1200 ng/mL
[16]
  Cmax: 140 ng/g
[17]
  EC50: 8 nM
[18]
  Activity: 0%
Cytochrome P450 2C19
  IC50: 9000 nM
Mus musculus
  Activity: Non-toxic
[19]
  EC50: 8 nM
A-375 [20]
  Activity: 10%
[21]
  Tmax: 2 h
[22]
  IC50: 20000 nM
[23]
  EC50: 8 nM
[24]
  half-life: 1.7 h
[25]
  half-life: 2.4 h
A-375 [26]
  Activity: 22%
[27]
  Activity: Non-toxic
[28]
  Activity: 0%
A-375 [29]
  inhibition in vivo at 0.3 mg/kg: 71%
HUVEC [30]
  EC50: 2 nM
[31]
  half-life: 3 h
P388 [32]
  MSD: 23.5 days
[33]
  bioavailability: 44%
[34]
  Activity: 0%
[35]
  IC50: 13 nM
HUVEC [36]
  EC50: 8 nM
[37]
  inhibition: > 80%
[38]
  bioavailability: 93%
[39]
  inhibition: > 80%
[40]
  inhibition: Active
[41]
  inhibition: Active
[42]
  Vd: 1.3 L/kg
P388 [43]
  MSD: 23 days
[44]
  AUC: 8560 ng·h/mL
[45]
  Cmax: 1330 ng/mL
A-375 [46]
  Activity: 11%
[47]
  remaining at 2 h: 65%
P388 [48]
  MSD: 27.5 days
[49]
  IC50: 132 nM
[50]
  inhibition: > 80%
[51]
  inhibition: Active
